# Results taken from US10571387B2, “Apparatus and method for determining the mechanical properties of cells” (Zellmechanik Dresden GmbH, priority 2013, dated 2020).
# Tested on: HL60 cells
# Assay: Real-time deformability measurement (circularity) of cells in shear flow through a microfluidic channel
# Format: cell-based
# Excerpt: In order to compare the deformation of cells, it is useful to introduce a single parameter to quantify the degree of deformation for each single cell. This can be done in numerous ways. • The circularity of a closed contour is defined by
# [formula] where A is the area enclosed by the contour and l is the perimeter.
# The circularity relates the ratio of area and perimeter to that of an ideal circle. For an ideal circle c=1. All other shapes result in values smaller than 1. […] For initially spherical cells such as the HL60 cell line the circularity is a very sensitive measure for the induced deformation. However for cells initially having other shapes the circularity may not be the ideal choice, since completely different shapes can lead to the same circularity.
# The following experimental protocol is used for all measurements described in this section. For comparability all studies on HL60 cells presented in this application are carried out during the log phase of cell growth (36 h after splitting). Cells are centrifuged for 5 minutes at 800 rpm (which leads to an outward acceleration of about 100 g) using an Eppendorf 5804 R centrifuge (Eppendorf, Hamburg, Germany). […] The viscosity of the medium was measured with a falling sphere viscometer (HAAKE Kugelfallviskosimeter Typ C, Thermo Electron GmbH, Karlsruhe, Germany). […]
compound,measurement,setting,value
C=C1[C@@H](C)[C@H]2[C@H](Cc3ccccc3)NC(=O)[C@]23[C@H](OC(C)=O)/C=C/[C@@](C)(O)C(=O)[C@@H](C)C/C=C/[C@H]3[C@@H]1O [cytochalasin D],circularity (peak of the histogram of circularities),"HL60 cells treated with cytochalasin D (2 mM added to a final concentration of 5 μL/ml, 10 minutes at 37° C.), flow rate 0.04 μl/s, 20×20 μm^2 channel section, real time measurement, FIG. 10A",0.929±0.04
same,deformation compared to untreated cells,"HL60 cells treated with cytochalasin D, flow rate of 0.04 μl/s",deform more
